In patent US11352394B2, “Cyclic cell penetrating peptides comprising beta-hairpin motifs and methods of making and using thereof” (Ohio State Innovation Foundation, priority 2016, dated 2022):
“Also recorded” adds a separate entry of the source. Square brackets hold non-standard residues; d marks the D form. Peptide text beside a SMILES is read from it. pY = N[C@@H](Cc1ccc(OP(=O)(O)O)cc1)C(=O)O; 2Nal = N[C@@H](Cc1ccc2ccccc2c1)C(=O)O

Legend:
[1] = molecular target: Keap1-Nrf2 interaction (Homo sapiens, UniProt Q14145); assay: Fluorescence anisotropy-based competition assay, inhibition of Keap1-Nrf2 peptide interaction; type: binding; details: for IC50: FA competition with fluorescently labeled Nrf2 peptide and Keap1; for Decrease of affinity for Keap1 / inhibition potency: Asn-Ala analogues vs Asp-Pro parents (BH13, BH15, BH17), BH19: truncation of cargo to 6-aa
Keap1-Nrf2 interaction, sequence (Q14145 321-609 limits assumed): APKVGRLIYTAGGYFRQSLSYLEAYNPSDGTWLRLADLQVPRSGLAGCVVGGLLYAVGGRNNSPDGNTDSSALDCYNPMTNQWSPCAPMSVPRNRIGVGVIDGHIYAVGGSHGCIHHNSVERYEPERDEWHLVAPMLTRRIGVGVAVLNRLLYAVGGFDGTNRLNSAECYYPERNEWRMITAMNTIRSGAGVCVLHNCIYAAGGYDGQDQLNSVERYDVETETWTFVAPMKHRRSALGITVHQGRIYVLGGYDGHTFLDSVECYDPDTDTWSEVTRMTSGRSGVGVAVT
Method: The percentage of inhibition was calculated from the fluorescence anisotropy decrease by using equation % Inhibition=(FAmax−FAobs)/(FAmax−FAmin)×100% and plotted against the inhibitor concentration.

[2] = system: Nrf2 protein level, HEK293 cells; assay: Western blot of Nrf2 protein level in cytoplasm and nucleus of HEK293 cells; type: cell-based, human; details: varying doses
Description: The cellular activity of Keap1-Nrf2 Inhibitor BH15 was characterized, and it was observed that BH15 is biologically active in cell-based assays. Varying doses of BH15 were provided to HEK293 cells in culture. After a period of time, the cells were lysed, and cytosolic fractions were separated from nuclear fractions.
(§1) BH15 enters human cells, binds and inhibits the function of Keap1 (which promotes the ubiquitination and degradation of Nrf2), resulting in increased intracellular levels of Nrf2, a transcription factor. […] This in turn results in the increased levels of HO-1, a protein whose expression is controlled by Nrf2.

[3] = system: HO-1 protein (Keap1-Nrf2-ARE pathway), HEK293 cells; assay: Anti-HO1 immunoblot of HO-1 protein level in HEK293 cells; type: cell-based, human
Method: FIG. 5 is an image from a Western blot analysis of HO-1 protein levels in HEK293 cells untreated or after treatment with SFN (10 μM) or a cyclic β-hairpin peptide (40 μM).
FIG. 8 is a western blot showing the effect of peptide BH15 on the protein level of HO-1, a protein downstream of the Keap1-Nrf2-ARE pathway. SFN, a small-molecule positive control; blank, no inhibitor.
The cellular activity of Keap1-Nrf2 inhibitors BH13-18 was assessed by examining their effects on the expression levels of HO-1 protein, by anti-HO1 immunoblot analysis. HO-1 is an antioxidant enzyme under the transcriptional control of Nrf2 binding to the ARE, and disruption of the Keap1-Nrf2 interaction is expected to increase the protein level of HO-1.
as §1

[4] = molecular target: Grb2 SH2 domain (Homo sapiens, UniProt P62993); assay: FP-based competition assay with FAM-labeled reporter ligand for Grb2 SH2 domain; type: binding
Grb2 SH2 domain, sequence (P62993 60-152 limits assumed): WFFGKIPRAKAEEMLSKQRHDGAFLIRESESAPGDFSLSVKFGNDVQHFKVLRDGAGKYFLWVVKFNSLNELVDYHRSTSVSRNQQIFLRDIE
Method: FIG. 10(a) is the structure of a Grb2 SH2 ligand. […] This ligand was used as reporter ligand in FA/FP-based competition assays to determine the binding affinities of new Grb2 SH2 domain ligands.
The binding affinity of BH23 (unlabeled) for the Grb2 SH2 domain was then determined by examining its ability to compete with the FAM-labeled ligand for binding to the Grb2 SH2 domain by fluorescence polarization (FP). […] Next, BH23 was labeled with NF at the Asn side chain through a miniPEG-Lys linker and its cytosolic entry efficiency was quantitated by treating HeLa cells with 5 μM of the labeled peptide for 2 h before flow cytometry analysis. […] BH23 was also similarly labeled at the Asn side chain with FAM and its entry into HeLa cells was examined by live-cell confocal microscopy. […] Two control peptides (BH24 and BH25) were also prepared for cellular assays. BH24 and BH25 are structurally similar to BH23, except that BH24 contained a Tyr instead of the pY residue (FIG. 11), whereas in BH25 the two hydrophobic residues critical for cellular uptake (Nal-arg) were replaced with Ala-ala (FIG. 12).

[5] = system: Grb2/Ras signaling pathway, MDA-MB-468 breast cancer cells; assay: Western blot of MEK and ERK1/2 phosphorylation in EGF-stimulated MDA-MB-468 cells; type: cell-based; details: peptide 2 h, EGF 50 ng/mL 10 min
Method: FIG. 13 provides western blots depicting the effect of peptides BH23, BH24, and BH25 on the Grb2/Ras signaling pathway. MDA-MB-468 cells were treated with the indicated concentrations of peptide BH23 (a) or control peptides BH24 and BH25 (b) for 2 h and stimulated with EGF (50 ng/mL) for 10 min. The cells were then lysed and the cell lysates were separated on SDS-PAGE and blotted with antibodies specific for phosphorylated and total kinases in the Ras signaling pathway. Glyceraldehyde 3-phosphate dehydrogenase (GAPDH) was used as the loading control. […] Inhibition of ERK1/2 phosphorylation was less dramatic, as expected from its further downstream position on the Grb2/Ras signaling pathway.
FIG. 14(a) is the structure of BH26. FIG. 14(b) provides western blots showing the effect of peptides BH23 and BH26 on the Grb2/Ras signaling pathway. MDA-MB-468 cells were treated with the indicated concentrations of BH23 or BH26 for 2 h and stimulated with EGF (50 ng/mL) for 10 min. The cells were then lysed and the cell lysates were separated on SDS-PAGE and blotted with antibodies specific for phosphorylated and total kinases in the Ras signaling pathway.
BH23 and BH24 were tested for their ability to inhibit the Grb2/Ras signaling pathways, by monitoring the phosphorylation of MEK and ERK1/2 kinases downstream of Ras.

[6] = system: HeLa cells; assay: Cellular (cytosolic) uptake of NF-labeled peptides by flow cytometry (MFI); type: cell-based; details: HeLa cells, flow cytometry
[7] = system: mammalian cells; details: Qian et al. 2013; cited from earlier work
[8] = LaRochelle et al. 2015; cited from earlier work

CC(C)C[C@@H]1NC(=O)[C@H](Cc2ccccc2)NC(=O)[C@H](CCCNC(=N)N)NC(=O)[C@H](CCCNC(=N)N)NC(=O)[C@@H]2CCCN2C(=O)[C@H]2CCCN2C(=O)[C@@H](CCCNC(=N)N)NC(=O)[C@H](Cc2ccc3ccccc3c2)NC(=O)[C@H](Cc2ccccc2)NC(=O)[C@H](Cc2ccccc2)NC(=O)[C@H](CCC(=O)O)NC(=O)CNC(=O)[C@H]([C@@H](C)O)NC(=O)[C@H](CCC(=O)O)NC(=O)[C@@H]2CCCN2C(=O)[C@H](CC(=O)O)NC1=O [BH15, cyclo(F-F-Φ-r-p-P-R-R-F-L-D-P-E-T-G-E)]
IC50 [1]: ~0.16 µM
Nrf2 levels in cytosolic and nuclear fractions [2]: dose-dependently increased
HO-1 level, dose response ([3]; varying doses): dose-dependently increased

CC(C)C[C@@H]1NC(=O)[C@H](Cc2ccccc2)NC(=O)[C@H](CCCNC(=N)N)NC(=O)[C@H](CCCNC(=N)N)NC(=O)[C@@H]2CCCN2C(=O)[C@H]2CCCN2C(=O)[C@@H](CCCNC(=N)N)NC(=O)[C@H](Cc2ccc3ccccc3c2)NC(=O)[C@H](Cc2ccccc2)NC(=O)[C@H](CCC(=O)O)NC(=O)CNC(=O)[C@H]([C@@H](C)O)NC(=O)[C@H](CCC(=O)O)NC(=O)[C@H](C)NC(=O)[C@H](CC(N)=O)NC1=O [BH18, cyclo(F-Φ-r-p-P-R-R-F-L-N-A-E-T-G-E)] (cyclo(F[2Nal][dR][dP]PRRFLNAETGE))
Decrease of affinity for Keap1 / inhibition potency [1]: ~10 fold
IC50 [1]: 1.4 ± 0.15 µM

C[C@@H]1NC(=O)[C@H](CC(N)=O)NC(=O)[C@H](Cc2ccccc2)NC(=O)[C@H](CCCNC(=N)N)NC(=O)[C@H](CCCNC(=N)N)NC(=O)[C@@H]2CCCN2C(=O)[C@H]2CCCN2C(=O)[C@@H](CCCNC(=N)N)NC(=O)[C@H](Cc2ccc3ccccc3c2)NC(=O)[C@H](Cc2ccccc2)NC(=O)[C@H](CCC(=O)O)NC(=O)CNC(=O)[C@H]([C@@H](C)O)NC(=O)[C@H](CCC(=O)O)NC1=O [BH19, cyclo(F-Φ-r-p-P-R-R-F-N-A-E-T-G-E)] (cyclo(F[2Nal][dR][dP]PRRFNAETGE))
Decrease of affinity for Keap1 / inhibition potency [1]: 34 fold

CC(C)[C@@H]1NC(=O)[C@H](Cc2ccc(O)cc2)NC(=O)[C@H](CCCNC(=N)N)NC(=O)[C@H](CCCNC(=N)N)NC(=O)[C@@H]2CCCN2C(=O)[C@H]2CCCN2C(=O)[C@@H](CCCNC(=N)N)NC(=O)[C@H](Cc2ccc3ccccc3c2)NC(=O)[C@H](Cc2ccccc2)NC(=O)[C@H](CC(N)=O)NC1=O [BH24, cyclo[F-Φ-r-p-P-R-R-Y-V-N)] (cyclo(YVNF[2Nal][dR][dP]PRR))
Binding to the Grb2 SH2 domain (in words) ([4]; competition with fluorescently labeled reporter ligand): no detectable binding; also recorded: inability to compete
IC50 ([4]; unlabeled peptide, FP-based competition with FAM-labeled ligand, read-out: IC50 Value, binding to Grb2 SH2 domain): > 10 µM
Phosphorylation of MEK [5]: did not decrease and not

CC(C)[C@@H]1NC(=O)[C@H](Cc2ccc(OP(=O)(O)O)cc2)NC(=O)[C@H](CCCNC(=N)N)NC(=O)[C@H](CCCNC(=N)N)NC(=O)[C@@H]2CCCN2C(=O)[C@H]2CCCN2C(=O)[C@@H](C)NC(=O)[C@H](C)NC(=O)[C@H](Cc2ccccc2)NC(=O)[C@H](CC(N)=O)NC1=O [BH25, cyclo[F-A-a-p-P-R-R-pY-V-N)] (cyclo([pY]VNFA[dA][dP]PRR))
Cellular entry / delivery efficiency (in words) [6]: poor cellular uptake
Phosphorylation of MEK [5]: did not decrease and not

C[S+]([O-])CCCCN=C=S (stereo not shown) [SFN, Sulforaphane, reference compound]
HO-1 level (positive control) ([3]; 10 μM): increased

cyclo(F-Φ-R-R-R-R-Q)-miniPEG-K(NF) (cyclo(F[2Nal]RRRRQ); not fully specified (residue 7); printed as cyclo(F-Φ-R-R-R-R-Q)-miniPEG-K(NF)) [CPP1, reference compound]
Efficiency of entry into cytoplasm and nucleus, fold higher than nonaarginine (R9) [7]: 2-5 fold
Cellular Uptake (MFINF, %) ([6]; 5 μM NF-labeled peptide, 2 h, relative to CPP1 (100%)): 100%
Cellular Uptake (MFI^NF, %) of Keap1-Nrf2 inhibitors ([6]; NF-labeled peptide, relative to CPP1 (100%)): 100%

nonaarginine (RRRRRRRRR) [Peptide R9]
Cytosolic delivery efficiency (ratio of cytosolic over extracellular cargo concentrations) [8]: 4.4%
